In ChEMBL document CHEMBL5291721, “A preclinical secondary pharmacology resource illuminates target-adverse drug reaction associations of marketed drugs” (Nat Commun, 2023):

Columns and labels:
[1] = target: T1, Thromboxane A2 receptor (Homo sapiens, UniProt P21731); assay type: functional, cell-based
T1 sequence (P21731 whole entry): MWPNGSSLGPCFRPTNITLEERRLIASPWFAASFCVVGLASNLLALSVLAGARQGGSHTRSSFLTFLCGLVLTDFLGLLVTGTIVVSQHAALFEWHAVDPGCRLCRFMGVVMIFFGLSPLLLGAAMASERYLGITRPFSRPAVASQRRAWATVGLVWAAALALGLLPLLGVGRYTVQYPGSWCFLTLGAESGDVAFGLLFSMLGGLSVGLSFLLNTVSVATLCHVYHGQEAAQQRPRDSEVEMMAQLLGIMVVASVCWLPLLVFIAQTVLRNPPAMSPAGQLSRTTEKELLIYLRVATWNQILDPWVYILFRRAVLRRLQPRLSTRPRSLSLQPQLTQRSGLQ

[2] = target: cGMP-inhibited 3',5'-cyclic phosphodiesterase 3A (Homo sapiens, UniProt Q14432); assay type: functional
[3] = target: 3',5'-cyclic-AMP phosphodiesterase 4A (Homo sapiens, UniProt P27815); assay type: functional
[4] = target: T2, Amine oxidase [flavin-containing] A (Homo sapiens, UniProt P21397); assay type: functional
T2 sequence (P21397 whole entry): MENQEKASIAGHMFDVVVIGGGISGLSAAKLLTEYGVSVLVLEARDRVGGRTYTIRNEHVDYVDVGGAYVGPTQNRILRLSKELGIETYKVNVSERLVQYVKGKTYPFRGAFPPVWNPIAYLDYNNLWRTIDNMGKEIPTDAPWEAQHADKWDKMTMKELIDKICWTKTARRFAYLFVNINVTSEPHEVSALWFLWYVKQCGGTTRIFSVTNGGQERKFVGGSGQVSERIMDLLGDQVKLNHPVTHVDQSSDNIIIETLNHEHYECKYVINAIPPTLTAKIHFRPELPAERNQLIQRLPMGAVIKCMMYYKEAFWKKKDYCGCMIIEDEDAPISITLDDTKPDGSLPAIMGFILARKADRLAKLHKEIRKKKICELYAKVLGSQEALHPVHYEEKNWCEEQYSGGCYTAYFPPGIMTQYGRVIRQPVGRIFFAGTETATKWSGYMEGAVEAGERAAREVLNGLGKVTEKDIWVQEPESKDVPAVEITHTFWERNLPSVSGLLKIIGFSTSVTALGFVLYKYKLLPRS

[5] = target: T3, Alpha-2A adrenergic receptor (Homo sapiens, UniProt P08913)
T3 sequence (P08913 whole entry): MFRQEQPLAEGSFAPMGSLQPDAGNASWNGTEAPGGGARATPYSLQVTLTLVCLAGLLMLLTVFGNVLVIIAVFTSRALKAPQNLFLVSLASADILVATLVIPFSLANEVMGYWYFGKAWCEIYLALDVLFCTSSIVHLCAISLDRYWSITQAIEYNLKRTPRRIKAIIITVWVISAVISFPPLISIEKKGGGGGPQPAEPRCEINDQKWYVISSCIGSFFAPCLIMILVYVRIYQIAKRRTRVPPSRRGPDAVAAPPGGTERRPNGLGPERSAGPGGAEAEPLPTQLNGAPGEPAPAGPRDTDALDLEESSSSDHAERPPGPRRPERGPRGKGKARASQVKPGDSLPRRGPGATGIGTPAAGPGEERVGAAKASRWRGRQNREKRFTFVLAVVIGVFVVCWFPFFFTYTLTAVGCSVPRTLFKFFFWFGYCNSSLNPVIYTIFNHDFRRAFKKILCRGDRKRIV

[6] = target: T4, Muscarinic acetylcholine receptor M2 (Homo sapiens, UniProt P08172)
T4 sequence (P08172 whole entry): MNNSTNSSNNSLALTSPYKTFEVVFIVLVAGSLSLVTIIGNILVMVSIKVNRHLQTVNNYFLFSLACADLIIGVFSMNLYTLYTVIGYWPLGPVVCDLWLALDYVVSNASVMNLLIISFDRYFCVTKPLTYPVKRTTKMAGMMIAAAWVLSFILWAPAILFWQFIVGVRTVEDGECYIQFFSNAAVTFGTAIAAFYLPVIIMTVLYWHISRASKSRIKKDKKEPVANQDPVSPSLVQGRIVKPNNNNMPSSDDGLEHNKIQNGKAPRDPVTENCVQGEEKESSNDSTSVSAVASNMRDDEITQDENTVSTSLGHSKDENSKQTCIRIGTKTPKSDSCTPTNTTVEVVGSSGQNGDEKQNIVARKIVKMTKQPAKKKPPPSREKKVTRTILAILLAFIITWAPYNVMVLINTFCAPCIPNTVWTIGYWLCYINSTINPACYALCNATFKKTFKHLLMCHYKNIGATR

[7] = target: Prostaglandin G/H synthase 1 (Homo sapiens, UniProt P23219); assay type: functional
[8] = target: Sodium-dependent dopamine transporter (Homo sapiens, UniProt Q01959)
[9] = target: T5, Alpha-1A adrenergic receptor (Homo sapiens, UniProt P35348); assay type: functional, cell-based
T5 sequence (P35348 whole entry): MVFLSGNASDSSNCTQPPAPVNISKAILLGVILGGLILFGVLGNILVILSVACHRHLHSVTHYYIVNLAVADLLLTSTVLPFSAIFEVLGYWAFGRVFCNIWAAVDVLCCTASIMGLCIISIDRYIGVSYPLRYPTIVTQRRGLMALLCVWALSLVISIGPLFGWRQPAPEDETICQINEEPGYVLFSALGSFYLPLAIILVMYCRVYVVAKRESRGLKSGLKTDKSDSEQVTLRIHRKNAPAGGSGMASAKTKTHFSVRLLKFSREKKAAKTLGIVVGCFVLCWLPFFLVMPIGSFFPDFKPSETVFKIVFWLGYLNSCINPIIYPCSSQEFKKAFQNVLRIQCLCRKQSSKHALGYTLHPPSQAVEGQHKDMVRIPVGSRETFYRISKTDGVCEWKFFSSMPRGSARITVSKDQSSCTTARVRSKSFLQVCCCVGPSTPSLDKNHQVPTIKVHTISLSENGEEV

[10] = target: Voltage-gated inwardly rectifying potassium channel KCNH2 (Homo sapiens, UniProt Q12809); assay type: functional; conditions: read-out: AC50
Also: assay procedure not described here.

Sequence of Voltage-gated inwardly rectifying potassium channel KCNH2 (Q12809 whole entry): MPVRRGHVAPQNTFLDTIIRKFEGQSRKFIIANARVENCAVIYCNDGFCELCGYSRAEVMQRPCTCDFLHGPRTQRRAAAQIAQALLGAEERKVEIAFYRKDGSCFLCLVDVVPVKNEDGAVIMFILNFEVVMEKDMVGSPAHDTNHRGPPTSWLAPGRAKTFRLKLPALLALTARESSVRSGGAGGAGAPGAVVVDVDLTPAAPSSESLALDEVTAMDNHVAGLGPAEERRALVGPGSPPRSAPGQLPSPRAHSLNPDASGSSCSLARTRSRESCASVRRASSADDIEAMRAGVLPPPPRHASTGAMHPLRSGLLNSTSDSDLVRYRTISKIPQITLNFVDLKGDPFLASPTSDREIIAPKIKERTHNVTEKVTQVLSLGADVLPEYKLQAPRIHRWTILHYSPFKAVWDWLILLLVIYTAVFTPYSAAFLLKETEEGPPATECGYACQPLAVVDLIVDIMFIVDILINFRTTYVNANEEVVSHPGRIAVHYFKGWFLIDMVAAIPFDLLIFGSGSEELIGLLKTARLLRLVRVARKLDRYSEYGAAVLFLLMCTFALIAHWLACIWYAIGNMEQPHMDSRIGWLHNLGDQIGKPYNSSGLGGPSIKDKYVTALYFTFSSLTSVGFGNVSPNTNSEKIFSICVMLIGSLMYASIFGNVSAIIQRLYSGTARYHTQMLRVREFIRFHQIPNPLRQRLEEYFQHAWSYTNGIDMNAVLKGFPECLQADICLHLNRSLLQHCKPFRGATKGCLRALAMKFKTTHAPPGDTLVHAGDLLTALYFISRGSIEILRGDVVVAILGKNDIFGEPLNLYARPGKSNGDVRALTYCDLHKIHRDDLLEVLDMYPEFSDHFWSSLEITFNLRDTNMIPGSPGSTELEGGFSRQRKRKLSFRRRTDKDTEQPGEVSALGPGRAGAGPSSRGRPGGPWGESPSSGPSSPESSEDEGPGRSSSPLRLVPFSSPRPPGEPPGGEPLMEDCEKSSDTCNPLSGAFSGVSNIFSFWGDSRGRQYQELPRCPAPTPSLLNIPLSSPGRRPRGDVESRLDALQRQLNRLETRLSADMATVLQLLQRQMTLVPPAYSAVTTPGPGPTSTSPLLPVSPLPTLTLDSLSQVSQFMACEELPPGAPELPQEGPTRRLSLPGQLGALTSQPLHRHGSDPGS
Sequence of cGMP-inhibited 3',5'-cyclic phosphodiesterase 3A (Q14432 whole entry): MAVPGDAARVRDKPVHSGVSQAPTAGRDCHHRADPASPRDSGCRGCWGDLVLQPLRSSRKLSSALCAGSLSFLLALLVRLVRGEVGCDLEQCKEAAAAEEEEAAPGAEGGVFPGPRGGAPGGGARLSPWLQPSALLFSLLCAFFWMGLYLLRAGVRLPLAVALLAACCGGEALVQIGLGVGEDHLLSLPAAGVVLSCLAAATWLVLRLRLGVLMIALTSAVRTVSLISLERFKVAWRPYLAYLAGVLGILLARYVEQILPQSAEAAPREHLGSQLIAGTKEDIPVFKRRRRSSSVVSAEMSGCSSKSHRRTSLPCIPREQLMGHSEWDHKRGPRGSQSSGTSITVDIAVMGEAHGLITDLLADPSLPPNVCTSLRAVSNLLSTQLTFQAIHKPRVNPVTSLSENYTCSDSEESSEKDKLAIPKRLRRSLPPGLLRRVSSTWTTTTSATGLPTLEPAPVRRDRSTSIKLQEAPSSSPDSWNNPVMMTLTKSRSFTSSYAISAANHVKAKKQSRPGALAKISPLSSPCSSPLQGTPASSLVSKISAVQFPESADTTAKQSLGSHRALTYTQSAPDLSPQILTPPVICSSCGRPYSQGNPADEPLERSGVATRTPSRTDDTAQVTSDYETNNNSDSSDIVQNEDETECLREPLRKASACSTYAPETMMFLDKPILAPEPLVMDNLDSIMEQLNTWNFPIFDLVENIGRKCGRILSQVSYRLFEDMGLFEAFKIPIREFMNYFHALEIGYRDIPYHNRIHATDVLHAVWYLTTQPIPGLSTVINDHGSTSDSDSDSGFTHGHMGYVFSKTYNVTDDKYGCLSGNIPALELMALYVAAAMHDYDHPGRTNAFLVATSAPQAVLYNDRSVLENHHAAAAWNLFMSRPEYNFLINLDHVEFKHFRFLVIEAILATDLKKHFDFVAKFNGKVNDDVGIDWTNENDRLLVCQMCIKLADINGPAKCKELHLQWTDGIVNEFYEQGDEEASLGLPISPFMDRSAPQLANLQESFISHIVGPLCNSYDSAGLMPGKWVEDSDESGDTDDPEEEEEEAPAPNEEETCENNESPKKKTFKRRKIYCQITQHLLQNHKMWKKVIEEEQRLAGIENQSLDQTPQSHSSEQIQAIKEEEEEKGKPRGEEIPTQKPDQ
Sequence of Sodium-dependent dopamine transporter (Q01959 whole entry): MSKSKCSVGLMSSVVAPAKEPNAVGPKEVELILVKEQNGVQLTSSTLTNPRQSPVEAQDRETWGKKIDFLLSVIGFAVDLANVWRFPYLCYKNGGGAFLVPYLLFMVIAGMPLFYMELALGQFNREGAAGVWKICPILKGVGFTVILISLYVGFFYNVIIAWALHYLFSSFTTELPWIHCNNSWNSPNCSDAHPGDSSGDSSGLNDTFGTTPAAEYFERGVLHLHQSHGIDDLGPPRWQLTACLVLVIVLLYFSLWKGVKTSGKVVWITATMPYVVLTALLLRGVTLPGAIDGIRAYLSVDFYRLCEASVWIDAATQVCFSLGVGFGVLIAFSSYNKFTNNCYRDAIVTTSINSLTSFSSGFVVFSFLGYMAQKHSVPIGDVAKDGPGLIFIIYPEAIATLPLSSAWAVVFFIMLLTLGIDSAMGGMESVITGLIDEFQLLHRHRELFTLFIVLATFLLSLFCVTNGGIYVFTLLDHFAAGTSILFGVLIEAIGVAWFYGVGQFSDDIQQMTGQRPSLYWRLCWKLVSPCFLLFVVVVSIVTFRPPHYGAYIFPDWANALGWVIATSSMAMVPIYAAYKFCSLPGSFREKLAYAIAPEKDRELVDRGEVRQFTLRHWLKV
Sequence of Prostaglandin G/H synthase 1 (P23219 whole entry): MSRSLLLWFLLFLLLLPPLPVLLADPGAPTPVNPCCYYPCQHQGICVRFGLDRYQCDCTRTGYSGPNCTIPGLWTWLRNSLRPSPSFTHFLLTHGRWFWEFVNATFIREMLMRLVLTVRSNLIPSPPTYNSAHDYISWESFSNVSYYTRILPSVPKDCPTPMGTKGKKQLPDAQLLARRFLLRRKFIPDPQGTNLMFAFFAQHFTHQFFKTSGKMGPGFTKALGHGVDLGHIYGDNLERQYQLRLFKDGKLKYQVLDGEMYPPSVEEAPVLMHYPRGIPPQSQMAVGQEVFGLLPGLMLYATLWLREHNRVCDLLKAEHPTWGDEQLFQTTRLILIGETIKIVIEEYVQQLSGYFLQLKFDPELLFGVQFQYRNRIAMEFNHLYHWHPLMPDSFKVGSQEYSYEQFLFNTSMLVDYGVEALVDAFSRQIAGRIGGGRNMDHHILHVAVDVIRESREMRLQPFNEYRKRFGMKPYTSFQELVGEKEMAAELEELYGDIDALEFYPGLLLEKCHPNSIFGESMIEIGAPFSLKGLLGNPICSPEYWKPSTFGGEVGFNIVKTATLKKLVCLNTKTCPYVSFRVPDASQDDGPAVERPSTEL
Sequence of 3',5'-cyclic-AMP phosphodiesterase 4A (P27815 whole entry): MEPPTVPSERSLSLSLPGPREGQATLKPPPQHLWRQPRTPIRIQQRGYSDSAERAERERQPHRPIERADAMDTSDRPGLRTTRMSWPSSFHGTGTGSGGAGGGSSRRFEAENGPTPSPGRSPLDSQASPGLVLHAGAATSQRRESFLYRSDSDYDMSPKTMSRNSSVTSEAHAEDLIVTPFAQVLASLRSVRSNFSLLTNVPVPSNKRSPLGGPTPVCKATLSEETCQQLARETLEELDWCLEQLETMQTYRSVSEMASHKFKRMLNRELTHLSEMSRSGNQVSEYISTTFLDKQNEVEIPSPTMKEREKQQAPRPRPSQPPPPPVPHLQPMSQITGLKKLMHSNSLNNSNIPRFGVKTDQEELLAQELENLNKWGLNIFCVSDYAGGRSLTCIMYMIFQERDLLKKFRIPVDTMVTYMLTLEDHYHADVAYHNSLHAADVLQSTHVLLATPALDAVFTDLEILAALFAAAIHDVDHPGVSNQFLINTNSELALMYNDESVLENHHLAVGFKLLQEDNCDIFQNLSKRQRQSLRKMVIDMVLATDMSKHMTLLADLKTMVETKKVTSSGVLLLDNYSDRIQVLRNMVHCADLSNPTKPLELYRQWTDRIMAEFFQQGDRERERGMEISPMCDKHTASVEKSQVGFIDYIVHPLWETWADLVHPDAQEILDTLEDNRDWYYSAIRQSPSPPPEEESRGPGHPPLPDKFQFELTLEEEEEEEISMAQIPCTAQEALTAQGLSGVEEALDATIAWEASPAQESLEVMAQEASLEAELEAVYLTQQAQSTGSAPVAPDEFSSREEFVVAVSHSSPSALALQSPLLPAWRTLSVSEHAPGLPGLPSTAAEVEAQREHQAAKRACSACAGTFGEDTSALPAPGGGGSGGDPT

Compound | AC50 [1] | AC50 [2] | AC50 [3] | AC50 [4] | AC50 [5] | AC50 [6] | AC50 [7] | AC50 [8] | AC50 [9] | AC50 [10]
O=[N+]([O-])c1cn2c(n1)OC[C@@H](OCc1ccc(OC(F)(F)F)cc1)C2 [PRETOMANID] | > 30 µM | > 30 µM | > 30 µM | > 30 µM | > 30 µM | > 30 µM | > 30 µM | > 30 µM | > 10 µM | 
Cc1oc(=O)oc1CN1CCN(c2cc3c(cc2F)c(=O)c(C(=O)O)c2n3C(C)S2)CC1 (stereo not given) [PRULIFLOXACIN] | > 30 µM | > 30 µM | > 30 µM | > 30 µM | > 30 µM | > 30 µM | > 30 µM | > 30 µM |  | > 30 µM
O=C(Oc1ccc2c(c1)CCCN2C(=O)C(Cl)Cl)c1ccco1 [QUINFAMIDE] | > 30 µM | > 30 µM | > 30 µM | > 30 µM | > 30 µM | > 30 µM | > 30 µM | > 30 µM | 24.6 µM | > 30 µM
CCCCCNC(=N)N/N=C/c1c[nH]c2ccc(OC)cc12 [TEGASEROD] | > 3 µM | > 30 µM | > 30 µM | 23.6 µM | 0.92 µM | 6.59 µM | 20.4 µM | 1.85 µM | 1.16 µM | 4.8 µM
Nc1nc2nc[nH]c2c(=S)[nH]1 [THIOGUANINE] | > 30 µM | > 30 µM | > 30 µM | > 30 µM | > 30 µM | > 30 µM | 0.81 µM | > 30 µM | > 30 µM | 
CCCCS(=O)(=O)N[C@@H](Cc1ccc(OCCCCC2CCNCC2)cc1)C(=O)O [TIROFIBAN] | > 10 µM | > 30 µM | > 30 µM | > 30 µM | > 30 µM | 20.4 µM | > 30 µM | > 30 µM | > 10 µM | > 30 µM
COC1=C(OC)C(=O)C(C/C=C(\C)CC/C=C(\C)CC/C=C(\C)CC/C=C(\C)CC/C=C(\C)CC/C=C(\C)CC/C=C(\C)CC/C=C(\C)CC/C=C(\C)CCC=C(C)C)=C(C)C1=O [UBIDECARENONE] | > 30 µM | > 30 µM | > 30 µM | > 30 µM | > 30 µM | > 30 µM | > 30 µM | > 30 µM | > 30 µM | > 30 µM
C=CCCCCCCCCC(=O)O [UNDECYLENIC ACID] | > 30 µM | > 30 µM | > 30 µM | > 30 µM | > 30 µM | > 30 µM | > 30 µM | > 30 µM |  | 
CC[C@]1(O)C[C@H]2CN(CCc3c([nH]c4ccccc34)[C@@](C(=O)OC)(c3cc4c(cc3OC)N(C=O)[C@H]3[C@@](O)(C(=O)OC)[C@H](OC(C)=O)[C@]5(CC)C=CCN6CC[C@]43[C@@H]65)C2)C1 [VINCRISTINE] | > 30 µM | > 30 µM | > 30 µM | > 30 µM | > 30 µM | > 30 µM | 11.2 µM | > 30 µM | > 30 µM | 
CN(C)CCc1c[nH]c2ccc(C[C@H]3COC(=O)N3)cc12 [ZOLMITRIPTAN] |  |  |  |  |  |  |  |  |  | > 30 µM
